PMC3594701 (Journal of acquired immune deficiency syndromes (1999), 2011)
“Also recorded” adds a separate entry of the source. One block for each compound: values may come before it.

Legend:
[1] = IC accumulation: ratio of IC drug to drug in plasma; details: human, oral, GM IC to Plasma Ratio
[2] = Steady-state intracellular; format: in vivo, human; details: IC (PBMC); for GM AUC (darunavir, ritonavir) / GM AUC: AUC0–24; for Cmax / concentration at 24 h: human, oral; for Cmax: GM Cmax; for concentration at 24 h: GM Ctrough
[3] = Steady-state plasma pharmacokinetics; format: in vivo, human; details: for Cmax / concentration at 24 h: human; for Cmax: GM Cmax; for concentration at 24 h: GM Ctrough
[4] = PBMC (intracellular)/plasma, Cmax, group 1, period 3 (day 49): darunavir/ritonavir 800/100 mg once daily, without raltegravir
[5] = PBMC (intracellular)/plasma, Cmax, group 2, period 3 (day 49): darunavir/ritonavir 800/100 mg once daily, without raltegravir
[6] = PBMC (intracellular)/plasma, Ctrough, group 1, period 3 (day 49): darunavir/ritonavir 800/100 mg once daily, without raltegravir
[7] = PBMC (intracellular)/plasma, Ctrough, group 2, period 3 (day 49): darunavir/ritonavir 800/100 mg once daily, without raltegravir
[8] = intracellular (PBMC) / plasma, AUC (darunavir, ritonavir), group 1, period 2 (day 35): darunavir/ritonavir 800/100 mg once daily + raltegravir 400 mg twice daily
[9] = intracellular (PBMC) / plasma, AUC (darunavir, ritonavir), group 2, period 2 (day 35): darunavir/ritonavir 800/100 mg once daily + raltegravir 800 mg once daily
[10] = intracellular (PBMC) / plasma, AUC, group 1, period 3 (day 49): darunavir/ritonavir 800/100 mg once daily, without raltegravir
[11] = intracellular (PBMC) / plasma, AUC, group 2, period 3 (day 49): darunavir/ritonavir 800/100 mg once daily, without raltegravir
[12] = intracellular (PBMC) / plasma, Cmax, group 1, period 2 (day 35): raltegravir 400 mg twice daily + darunavir/ritonavir 800/100 mg once daily
[13] = intracellular (PBMC) / plasma, Cmax, group 2, period 2 (day 35): raltegravir 800 mg once daily + darunavir/ritonavir 800/100 mg once daily
[14] = intracellular (PBMC) / plasma, Ctrough, group 1, period 2 (day 35): raltegravir 400 mg twice daily + darunavir/ritonavir 800/100 mg once daily
[15] = intracellular (PBMC) / plasma, Ctrough, group 2, period 2 (day 35): raltegravir 800 mg once daily + darunavir/ritonavir 800/100 mg once daily
[16] = group 1, period 2 (day 35): raltegravir 400 mg twice daily + darunavir/ritonavir 800/100 mg once daily
[17] = group 1, period 3 (day 49): darunavir/ritonavir 800/100 mg once daily, without raltegravir
[18] = group 2, period 3 (day 49): darunavir/ritonavir 800/100 mg once daily, without raltegravir
[19] = PBMC, group 2, period 2 (day 35): raltegravir 800 mg once daily + darunavir/ritonavir 800/100 mg once daily
[20] = oral, group 1, period 3 (day 49): darunavir/ritonavir 800/100 mg once daily, without raltegravir
[21] = oral, group 2, period 3 (day 49): darunavir/ritonavir 800/100 mg once daily, without raltegravir

Kp [1, 4]: 6.8 | Kp [1, 5]: 4.8 | Kp [1, 6]: 4.8 | Kp [1, 7]: 4.4 | Kp [1, 8]: 5.3 | Kp [1, 9]: 5.6 | Kp [1, 10]: 5.3 | Kp [1, 11]: 4.9 | Kp [1, 12]: 6.8 | Kp [1, 13]: 6.3 | Kp [1, 14]: 4.4 | Kp at 24 h [1, 15]: 4.3
Compound: CC(C)CN(C[C@@H](O)[C@H](Cc1ccccc1)NC(=O)O[C@H]1CO[C@H]2OCC[C@H]21)S(=O)(=O)c1ccc(N)cc1 [Darunavir, darunavir]

GM AUC (darunavir, ritonavir) ([2]; group 1, period 2 (day 35): darunavir/ritonavir 800/100 mg once daily + raltegravir 400 mg twice daily): 33,789 ng·h^−1·mL^−1 | GM Ctrough [2, 16]: 458 ng/mL | GM AUC [2, 17]: 36,769 ng·h^−1·mL^−1 | GM AUC (darunavir, ritonavir) ([2]; group 2, period 2 (day 35): darunavir/ritonavir 800/100 mg once daily + raltegravir 800 mg once daily): 28,683 ng·h^−1·mL^−1 | GM AUC [2, 18]: 27,652 ng·h^−1·mL^−1 | Cmax ([2]; PBMC (intracellular), group 1, period 3 (day 49): darunavir/ritonavir 800/100 mg once daily, without raltegravir): 4040 ng/mL | Cmax ([2]; PBMC (intracellular), group 2, period 3 (day 49): darunavir/ritonavir 800/100 mg once daily, without raltegravir): 2610 ng/mL | Cmax ([2]; PBMC, group 1, period 2 (day 35): raltegravir 400 mg twice daily + darunavir/ritonavir 800/100 mg once daily): 3880 ng/mL | Cmax [2, 19]: 3290 ng/mL | concentration at 24 h ([2]; PBMC, group 1, period 3 (day 49): darunavir/ritonavir 800/100 mg once daily, without raltegravir): 478 ng/mL | concentration at 24 h [2, 19]: 329 ng/mL | concentration at 24 h ([2]; PBMC, group 2, period 3 (day 49): darunavir/ritonavir 800/100 mg once daily, without raltegravir): 369 ng/mL | GM AUC (darunavir, ritonavir) ([3]; group 1, period 2 (day 35): darunavir/ritonavir 800/100 mg once daily + raltegravir 400 mg twice daily, AUC0–24): 4299 ng/h/mL | GM AUC (darunavir, ritonavir) ([3]; group 1, period 2 (day 35): darunavir/ritonavir 800/100 mg once daily + raltegravir 400 mg twice daily, AUC0–24, listed as ritonavir): 4299 (3823–5176) ng·h^−1·mL^−1 | GM Ctrough [3, 16]: 48 ng/mL | GM Ctrough [3, 17]: 44 ng/mL | GM AUC ([3]; group 1, period 3 (day 49): darunavir/ritonavir 800/100 mg once daily, without raltegravir, AUC0–24): 4568 ng/h/mL | GM AUC ([3]; group 1, period 3 (day 49): darunavir/ritonavir 800/100 mg once daily, without raltegravir, AUC0–24, listed as ritonavir): 4568 (4070–5427) ng·h^−1·mL^−1 | GM AUC (darunavir, ritonavir) ([3]; group 2, period 2 (day 35): darunavir/ritonavir 800/100 mg once daily + raltegravir 800 mg once daily, AUC0–24): 4359 ng/h/mL | GM AUC (darunavir, ritonavir) ([3]; group 2, period 2 (day 35): darunavir/ritonavir 800/100 mg once daily + raltegravir 800 mg once daily, AUC0–24, listed as ritonavir): 4359 (3816–5443) ng·h^−1·mL^−1 | GM Ctrough ([3]; group 2, period 2 (day 35): raltegravir 800 mg once daily + darunavir/ritonavir 800/100 mg once daily): 34 ng/mL | GM Ctrough [3, 18]: 36 ng/mL | GM AUC ([3]; group 2, period 3 (day 49): darunavir/ritonavir 800/100 mg once daily, without raltegravir, AUC0–24): 4516 ng/h/mL | GM AUC ([3]; group 2, period 3 (day 49): darunavir/ritonavir 800/100 mg once daily, without raltegravir, AUC0–24, listed as ritonavir): 4516 (3798–5986) ng·h^−1·mL^−1 | Cmax [3, 16]: 483 ng/mL | Cmax [3, 20]: 528 ng/mL | Cmax [3, 21]: 527 ng/mL | concentration at 24 h [3, 20]: 44 ng/mL | concentration at 24 h ([3]; oral, group 2, period 2 (day 35): raltegravir 800 mg once daily + darunavir/ritonavir 800/100 mg once daily): 34 ng/mL | concentration at 24 h [3, 21]: 36 ng/mL | PK exposure parameters with versus without raltegravir ([3]; periods 2 and 3): comparable; also recorded: not affected | Kp [1, 4]: 13.5 | Kp [1, 5]: 5.2 | Kp [1, 6]: 11.7 | Kp [1, 7]: 10.6 | Kp [1, 8]: 10 | Kp [1, 9]: 6.9 | Kp [1, 10]: 9.5 | Kp [1, 11]: 6.5 | Kp [1, 12]: 13.8 | Kp [1, 13]: 5.7 | Kp [1, 14]: 12 | Kp at 24 h [1, 15]: 10.1
Compound: CC(C)c1nc(CN(C)C(=O)N[C@H](C(=O)N[C@@H](Cc2ccccc2)C[C@H](O)[C@H](Cc2ccccc2)NC(=O)OCc2cncs2)C(C)C)cs1 [Ritonavir, ritonavir]
